Results from the NIST ThermoML archive (doi:10.1021/acs.jced.8b01202).
Where “and” joins values, the source holds several entries; their conditions need not be identical. Identical values can stand only once. Numbers after ± are expanded uncertainties.

Key:
[1] = 298.2 K; 101.33 kPa; Liquid; Vibrating tube method
[2] = refractive index (Na D-line) (dimensionless); settings: 298.2 K; 101.33 kPa; Liquid; Standard Abbe refractometry
[3] = refractive index (Na D-line) (dimensionless); wn = mass fraction of the nth substance listed; settings: 298.2 K, 81.5 kPa, Liquid, Standard Abbe refractometry

mass density [1]	refractive index [2]	refractive index ([3]; w2 = 0.0006)	refractive index ([3]; w2 = 0.0008)	refractive index ([3]; w2 = 0.0009)	refractive index ([3]; w2 = 0.001)	refractive index ([3]; w2 = 0.0016)	refractive index ([3]; w2 = 0.9996)	SMILES
857.54 ± 1.7 kg/m3	1.49005 ± 0.0014							CC(C)c1ccccc1 [isopropylbenzene]
		1.48845 ± 0.0014	1.48875 ± 0.0014 and 1.48855 ± 0.0014	1.49001 ± 0.0014	1.4885 ± 0.0014	1.48855 ± 0.0014	1.333 ± 0.0014	CC(C)c1ccccc1 [isopropylbenzene] + O
	1.3325 ± 0.0014							O [water]
